The values that follow come from article PMC10052977, “α,ω-Diacyl-Substituted Analogues of Natural and Unnatural Polyamines: Identification of Potent Bactericides That Selectively Target Bacterial Membranes” (International Journal of Molecular Sciences, 2023).

≈ marks a conversion by molar mass, not a printed value. Bounds are passed on as bounds.

One series relates to human red blood cells. Nature of the series: Hemolytic assay. It is filed as cell-based. Particulars: mean (n = 2). Here is the method:
Human whole blood was washed three times with 3 volumes of 0.9% NaCl and then resuspended in same to a concentration of 0.5 × 10^8 cells/mL, as determined by manual cell count in a Neubauer hemocytometer. The washed cells were then added to the 384-well compound-containing plates for a final volume of 50 μL. After a 10 min shake on a plate shaker, the plates were then incubated for 1 h at 37 °C. After incubation, the plates were centrifuged at 1000× g for 10 min to pellet cells and debris; 25 μL of the supernatant was then transferred to a polystyrene 384-well assay plate. Hemolysis was determined by measuring the supernatant absorbance at […] (OD405). The absorbance was measured using a Tecan M1000 Pro monochromator plate reader. HC10 and HC50 (concentration at 10% and 50% hemolysis, respectively) were calculated by curve fitting the inhibition values vs. log (concentration) using a sigmoidal dose–response function with variable fitting values for top, bottom and slope.

The test system of series [1] is Pseudomonas aeruginosa PAO1 or ATCC 27853. Nature of the series: MIC, broth dilution (CA-SFM). It is filed as cell-based. Particulars: mean (n = 3).
Series [2] is described as follows: Cytotoxicity assay (resazurin). The class given is cell-based, human. As to conditions: human; HEK293 cells; mean (n = 2); highest dose tested 32 μg/mL; read-out: Cytotoxicity (concentration of compound at 50% cytotoxicity, IC50).
A further series relates to MRSA ATCC 43300. Nature of the series: MIC, CO-ADD broth microdilution. The class given is cell-based, Staphylococcus aureus. As to conditions: for MIC: Staphylococcus aureus, MRSA ATCC 43300, mean (n = 2), read-out: MIC MRSA.
Series [3] deals with Acinetobacter baumannii ATCC19606. Nature of the series: MIC, CO-ADD broth microdilution. It is filed as cell-based. Particulars: mean (n = 2).
Series [4] has as its system Staphylococcus aureus ATCC 25923 or ATCC 29213. Nature of the series: MIC, broth dilution (CA-SFM). Particulars: Staphylococcus aureus ATCC 25923 or ATCC 29213; mean (n = 3); read-out: MIC S. a. It is filed as cell-based.
The test system of series [5] is Escherichia coli ATCC 25922. Nature of the series: MIC, CO-ADD broth microdilution. Particulars: ATCC25922, mean (n = 2). The class given is cell-based.
Series [6] relates to Klebsiella pneumoniae ATCC700603. Nature of the series: MIC, CO-ADD broth microdilution. It is filed as cell-based. Particulars: mean (n = 2).
The test system of series [7] is Cryptococcus neoformans ATCC208821. Nature of the series: Antifungal MIC, CO-ADD. Particulars: ATCC208821, Cryptococcus neoformans ATCC208821, mean (n = 2). It is filed as cell-based. On the procedure: (§1) For the antifungal assay, fungi strains were cultured for 3 days on YPD agar at 30 °C. A yeast suspension of 1 × 10^6 to 5 × 10^6 CFU/mL was prepared from five colonies. These stock suspensions were diluted with yeast nitrogen base (YNB) (Becton Dickinson, 233520) broth to a final concentration of 2.5 × 10^3 CFU/mL. […] Plates were covered and incubated at 35 °C for 36 h without shaking. C. albicans MICs were determined by measuring the absorbance at OD530. […] Fluconazole was used as a positive fungal inhibitor standard for C. albicans and C. neoformans. […] Quality control (QC) of the assays was determined by antimicrobial controls and Z’-factor (using positive and negative controls).

For series [8], the system named is Candida albicans ATCC90028. Nature of the series: Antifungal MIC, CO-ADD. Particulars: mean (n = 2). It is filed as cell-based. Here is the method: as §1

In the case of `O=C(NCCCNCCCCCCCCNCCCNC(=O)C(c1ccccc1)(c1ccccc1)c1ccccc1)C(c1ccccc1)(c1ccccc1)c1ccccc1.O=C(O)C(F)(F)F.O=C(O)C(F)(F)F` [Compound 17d, N^1,N^8-Bis(3-(2,2,2-triphenylacetamido)propyl)octane-1,8-diaminium 2,2,2-trifluoroacetate], in the series with human red blood cells, the “Hemolysis (HC10, concentration at 10% hemolytic activity)” value came to 0.719 µM. Moreover, the MIC in series [1] is 300 µM; in the series on MRSA ATCC 43300 it was under 0.24 µM; in series [3], 7.79 µM; in series [4], 6.25 µM; in series [5], 15.6 µM; in series [6] it was over 31.2 µM. In addition, the MIC in [7] is under 0.24 µM; in series [8] it was 15.6 µM. Besides, the IC50 at 20 h in series [2] was at most 0.243 µM.

Turning to `O=C(NCCCNCCCCCCNCCCNC(=O)C(c1ccccc1)(c1ccccc1)c1ccccc1)C(c1ccccc1)(c1ccccc1)c1ccccc1.O=C(O)C(F)(F)F.O=C(O)C(F)(F)F` [Compound 17b, N^1,N^6-Bis(3-(2,2,2-triphenylacetamido)propyl)hexane-1,6-diaminium 2,2,2-trifluoroacetate], in the series with human red blood cells, the “Hemolysis (HC10, concentration at 10% hemolytic activity)” value stood at 6.27 µM. In addition, the MIC in series [1] is 300 µM; in the series on MRSA ATCC 43300, under 0.25 µM; in series [3] it was 4 µM; in series [4], 6.25 µM; in series [5], 4 µM; in series [6] it was 32 µM. For the same compound, the MIC in [7] is under 0.25 µM; in [8] it was 16 µM. For the same compound, in series [2], the IC50 at 20 h was at most 0.25 µM.

Turning to `O=C(CCC(=O)NCCC(c1ccccc1)c1ccccc1)NCCCNCCCCCCCCCCCCNCCCNC(=O)CCC(=O)NCCC(c1ccccc1)c1ccccc1` [Compound 16f, N^1,N^12-Bis(3-(4-((3,3-diphenylpropyl)amino)-4-oxobutanamido)propyl)dodecane-1,12-diaminium 2,2,2-trifluroracetate], the “Hemolysis (HC10, concentration at 10% hemolytic activity)” value in the series with human red blood cells was 3.17 µM. For the same compound, the MIC in series [1] is 300 µM (≈ 270 µg/mL); in the series on MRSA ATCC 43300, at most 0.22 µM; in series [3], over 28.3 µM; in series [4], 3.13 µM (≈ 2.82 µg/mL); in series [5], over 28.3 µM; in [6] it was over 28.3 µM. Further, the minimal inhibitory concentration (MIC) in series [7] and in series [8] was over 28.3 µM throughout. The IC50 at 20 h in series [2] is over 28.3 µM.

For `O=C(CCC(=O)NCCCc1ccccc1)NCCCNCCCCCCCCCCNCCCNC(=O)CCC(=O)NCCCc1ccccc1.O=C(O)C(F)(F)F.O=C(O)C(F)(F)F` [Compound 14e, N^1,N^10-Bis(3-(4-oxo-4-((3-phenylpropyl)amino)butanamido)propyl)decane-1,10-diaminium 2,2,2-trifluoroacetate], in the series with human red blood cells, the “Hemolysis (HC10, concentration at 10% hemolytic activity)” value was over 33.7 µM. Moreover, the minimal inhibitory concentration (MIC) in series [1] was over 200 µM; in the series on MRSA ATCC 43300, 4.21 µM; in [3], over 33.7 µM; in [4] it was 100 µM; in series [5], 33.7 µM; in [6], over 33.7 µM. The MIC in series [7] was 33.7 µM; in [8], over 33.7 µM. Besides, the IC50 at 20 h in [2] was over 33.7 µM. Also, the “activity towards MRSA” value with MRSA ATCC 43300 (MRSA) is given as “weak”.

Take `O=C(CC(c1ccccc1)c1ccccc1)NCCCNCCCCCCCCCCCCNCCCNC(=O)CC(c1ccccc1)c1ccccc1.O=C(O)C(F)(F)F.O=C(O)C(F)(F)F` [Compound 15f, N^1,N^12-Bis(3-(3,3-diphenylpropanamido)propyl)dodecane-1,12-diaminium 2,2,2-trifluoroacetate]: the “Hemolysis (HC10, concentration at 10% hemolytic activity)” value in the series with human red blood cells worked out at 1.17 µM. In addition, the minimal inhibitory concentration (MIC) is 200 µM in [1]; at most 0.26 µM in the series with MRSA ATCC 43300; 1 µM in series [3]; 1.56 µM in series [4]; 2.1 µM in series [5]; over 33.4 µM in series [6]. Further, the figures for the MIC in series [7] and in series [8] were at most 0.28 µM and 8.34 µM, respectively. In addition, the IC50 at 20 h in series [2] turned out to be 5.46 µM.

`O=C(CCC(=O)NCCCc1ccccc1)NCCCNCCCCCCCCNCCCNC(=O)CCC(=O)NCCCc1ccccc1.O=C(O)C(F)(F)F.O=C(O)C(F)(F)F` [Compound 14d, N^1,N^8-Bis(3-(4-oxo-4-((3-phenylpropyl)amino)butanamido)propyl)octane-1,8-diaminium 2,2,2-trifluoroacetate]: in the series on human red blood cells, the “Hemolysis (HC10, concentration at 10% hemolytic activity)” value is over 34.7 µM. Also, the MIC in series [1] is over 100 µM; with MRSA ATCC 43300 it was over 34.7 µM; in series [3], over 34.7 µM; in series [4], over 100 µM; in series [5], over 34.7 µM; in series [6], over 34.7 µM. The MIC in series [7] and in [8] was over 34.7 µM in each case. For the same compound, in series [2], the IC50 at 20 h was over 34.7 µM.

`O=C(CCc1ccccc1)NCCCNCCCCCCNCCCNC(=O)CCc1ccccc1.O=C(O)C(F)(F)F.O=C(O)C(F)(F)F` [Compound 13b, N^1,N^6-Bis(3-(3-phenylpropanamido)propyl)hexane-1,6-diaminium 2,2,2-trifluoroacetate]: the “Hemolysis (HC10, concentration at 10% hemolytic activity)” value in the series on human red blood cells was over 44.3 µM. In addition, the MIC in series [1] was over 277 µM; in the series with MRSA ATCC 43300, over 44.3 µM; in series [3], over 44.3 µM; in [4], over 277 µM; in [5], over 44.3 µM; in series [6], over 44.3 µM. Also, the MIC in series [7] and in [8] was over 44.3 µM throughout. Also, the IC50 at 20 h in [2] is over 44.3 µM.

Consider `Cl.Cl.S=C(NCCCNCCCCCCNCCCNC(=S)NC(c1ccccc1)c1ccccc1)NC(c1ccccc1)c1ccccc1` [Compound 6b, N^1,N^6-Bis(3-(3-benzhydrylthioureido)propyl)hexane-1,6-diaminium chloride], for which, in the series on human red blood cells, the “Hemolysis (HC10, concentration at 10% hemolytic activity)” value is 2.96 µM. Besides, the MIC was 265 µM in series [1]; at most 0.33 µM in the series with MRSA ATCC 43300; 10.7 µM in series [3]; over 265 µM in series [4]; at most 0.33 µM in series [5]; over 42.4 µM in [6]. The values for the MIC in series [7] and in series [8] were over 42.4 µM and at most 0.33 µM, respectively. Moreover, the IC50 at 20 h in series [2] was over 42.4 µM.

Consider `O=C(CCC(=O)NCCC(c1ccccc1)c1ccccc1)NCCCNCCCCCCCCCCNCCCNC(=O)CCC(=O)NCCC(c1ccccc1)c1ccccc1.O=C(O)C(F)(F)F.O=C(O)C(F)(F)F` [Compound 16e, N^1,N^10-Bis(3-(4-((3,3-diphenylpropyl)amino)-4-oxobutanamido)propyl)decane-1,10-diaminium 2,2,2-trifluoroacetate], for which the “Hemolysis (HC10, concentration at 10% hemolytic activity)” value with human red blood cells was 17.9 µM. In addition, the MIC in series [1] is 200 µM; with MRSA ATCC 43300 it was at most 0.23 µM; in [3] it was 29.1 µM; in series [4], 12.5 µM; in series [5] it was 14.5 µM; in series [6], 29.1 µM. Further, the figures for the minimum inhibitory concentration (MIC) in series [7] and in series [8] were at most 0.28 µM and 29.1 µM, respectively. Further, the IC50 at 20 h in series [2] turned out to be 17.3 µM.

As for `O=C(CC(c1ccccc1)c1ccccc1)NCCCNCCCCCCCNCCCNC(=O)CC(c1ccccc1)c1ccccc1.O=C(O)C(F)(F)F.O=C(O)C(F)(F)F` [Compound 15c, N^1,N^7-Bis(3-(3,3-diphenylpropanamido)propyl)heptane-1,7-diaminium 2,2,2-trifluoroacetate], the “Hemolysis (HC10, concentration at 10% hemolytic activity)” value in the series with human red blood cells is over 36.0 µM. Also, the minimal inhibitory concentration (MIC) in [1] is 100 µM; in the series on MRSA ATCC 43300, at most 0.28 µM; in [3], over 36 µM; in series [4] it was 6.25 µM; in series [5] it was 2.3 µM; in series [6] it was over 36 µM. Further, the MIC in [7] was at most 0.28 µM; in series [8], over 36 µM. In addition, the IC50 at 20 h in [2] is over 36 µM.

Turning to `O=C(CCC(=O)NCCCc1ccccc1)NCCCNCCCCNCCCNC(=O)CCC(=O)NCCCc1ccccc1.O=C(O)C(F)(F)F.O=C(O)C(F)(F)F` [Compound 14a, N^1,N^4-Bis(3-(4-oxo-4-((3-phenylpropyl)amino)butanamido)propyl)butane-1,4-diaminium 2,2,2-trifluoroacetate], in the series on human red blood cells, the “Hemolysis (HC10, concentration at 10% hemolytic activity)” value was over 37 µM. Also, the minimum inhibitory concentration (MIC) in series [1] is over 200 µM; with MRSA ATCC 43300 it was over 37 µM; in series [3], over 37 µM; in series [4] it was 100 µM; in series [5] it was over 37 µM; in series [6], over 37 µM. The MIC in series [7] and in series [8] was over 37 µM in each case. Besides, the IC50 at 20 h in series [2] was over 37 µM.
